Assay: molar heat capacity at constant pressure
Conditions: Liquid, Flow calorimetry

CCCCCCCCCC(=O)OCC [ethyl decanoate]
Conditions | molar heat capacity at constant pressure [J/K/mol]
294 K, 100 kPa | 400.39
294 K, 3080 kPa | 399.98
294 K, 6090 kPa | 399.53
294 K, 8970 kPa | 399.07
294 K, 12120 kPa | 398.72
294.1 K, 14870 kPa | 398.28
294.1 K, 17910 kPa | 397.82
294.1 K, 21090 kPa | 397.38
294.1 K, 24040 kPa | 396.93
304 K, 130 kPa | 406.09
304 K, 3030 kPa | 405.62
304 K, 6160 kPa | 405.12
304 K, 9030 kPa | 404.66
304 K, 11950 kPa | 404.19
304 K, 15090 kPa | 403.69
304 K, 17870 kPa | 403.23
304.1 K, 21100 kPa | 402.75
304.1 K, 24050 kPa | 402.24
313.9 K, 110 kPa | 411.45
313.9 K, 2920 kPa | 410.92
313.9 K, 5990 kPa | 410.45
313.9 K, 9080 kPa | 409.95
314 K, 11910 kPa | 409.43
314 K, 15030 kPa | 408.93
314 K, 18090 kPa | 408.41
314 K, 21080 kPa | 407.89
314 K, 24110 kPa | 407.34
323.8 K, 150 kPa | 416.54
323.9 K, 3040 kPa | 416.03
323.9 K, 5930 kPa | 415.53
323.9 K, 9070 kPa | 415.03
323.9 K, 11980 kPa | 414.54
323.9 K, 15050 kPa | 414.03
324 K, 18050 kPa | 413.54
324 K, 21210 kPa | 413.06
324 K, 24030 kPa | 412.57
333.8 K, 120 kPa | 423.19
333.8 K, 2960 kPa | 422.7
333.8 K, 5990 kPa | 422.28
333.8 K, 9040 kPa | 421.77
333.9 K, 12030 kPa | 421.17
333.9 K, 14940 kPa | 420.66
333.9 K, 18050 kPa | 420.15
333.9 K, 21100 kPa | 419.65
334 K, 24050 kPa | 419.11
343.7 K, 150 kPa | 429.52
343.7 K, 3000 kPa | 429.02
343.7 K, 6190 kPa | 428.5
343.8 K, 8990 kPa | 427.96
343.8 K, 12100 kPa | 427.46
343.8 K, 14910 kPa | 426.93
343.8 K, 17990 kPa | 426.4
343.8 K, 21010 kPa | 426.07
343.9 K, 23970 kPa | 425.54
353.7 K, 110 kPa | 435.96
353.7 K, 2980 kPa | 435.41
353.7 K, 6020 kPa | 434.91
353.7 K, 8990 kPa | 434.4
353.8 K, 11920 kPa | 433.87
353.8 K, 14940 kPa | 433.36
353.8 K, 17960 kPa | 432.85
353.8 K, 21070 kPa | 432.33
353.9 K, 23980 kPa | 431.81

CCCCCCCC(=O)OCC [ethyl octanoate]
Conditions | molar heat capacity at constant pressure [J/K/mol]
294 K, 160 kPa | 339.59
294 K, 3020 kPa | 339.17
294.1 K, 5960 kPa | 338.74
294.1 K, 9040 kPa | 338.3
294.1 K, 12020 kPa | 337.9
294.1 K, 14980 kPa | 337.54
294.1 K, 17990 kPa | 337.13
294.1 K, 21060 kPa | 336.71
294.1 K, 23980 kPa | 336.29
303.7 K, 2940 kPa | 344.3
303.7 K, 6070 kPa | 343.83
303.8 K, 8950 kPa | 343.35
303.8 K, 12020 kPa | 342.9
303.9 K, 15040 kPa | 342.5
304 K, 18130 kPa | 342.09
304 K, 21050 kPa | 341.67
304 K, 24030 kPa | 341.18
305.6 K, 160 kPa | 344.76
314.3 K, 170 kPa | 350.6
314.3 K, 3140 kPa | 350.17
314.3 K, 6130 kPa | 349.71
314.4 K, 9110 kPa | 349.29
314.4 K, 12100 kPa | 348.89
314.4 K, 15030 kPa | 348.53
314.5 K, 18310 kPa | 348.11
314.5 K, 20910 kPa | 347.72
314.5 K, 24100 kPa | 347.25
323.8 K, 130 kPa | 355.82
323.8 K, 3030 kPa | 355.4
323.8 K, 6160 kPa | 354.96
323.8 K, 21030 kPa | 352.89
323.9 K, 9300 kPa | 354.54
323.9 K, 12120 kPa | 354.09
323.9 K, 15230 kPa | 353.71
323.9 K, 18110 kPa | 353.28
323.9 K, 24100 kPa | 352.47
333.7 K, 110 kPa | 360.49
333.7 K, 3060 kPa | 360.06
333.7 K, 6010 kPa | 359.65
333.8 K, 9110 kPa | 359.17
333.8 K, 11920 kPa | 358.75
333.8 K, 15070 kPa | 358.37
333.8 K, 18080 kPa | 357.9
333.9 K, 21120 kPa | 357.47
333.9 K, 24000 kPa | 357.06
343.5 K, 130 kPa | 365.32
343.5 K, 2950 kPa | 364.93
343.5 K, 6040 kPa | 364.48
343.5 K, 8990 kPa | 364.02
343.6 K, 12070 kPa | 363.6
343.7 K, 15050 kPa | 363.15
343.8 K, 18070 kPa | 362.7
343.8 K, 21010 kPa | 362.3
343.8 K, 24090 kPa | 361.84
353.6 K, 130 kPa | 370.06
353.6 K, 3030 kPa | 369.66
353.6 K, 6060 kPa | 369.24
353.7 K, 8990 kPa | 368.8
353.7 K, 11900 kPa | 368.4
353.8 K, 15040 kPa | 367.99
353.9 K, 18020 kPa | 367.57
354 K, 20960 kPa | 367.14
354 K, 24110 kPa | 366.72
